Test results as given in PMC10102062, “Effects of DPTQ, a novel positive allosteric modulator of the dopamine D1 receptor, on spontaneous eye blink rate and spatial working memory in the nonhuman primate” (Psychopharmacology, 2023).

What was measured:
D2 receptor = D2 receptor (Homo sapiens, UniProt P14416); set-up: method as in previously published data; conditions: at 10 µM, functional and binding studies; ref previously published data; cited from earlier work
rhesus monkeys [1] = test system: rhesus monkeys; set-up: method as in Bruns et al., [2018]; conditions: smaller response than SKF82958; ref Bruns et al., [2018]; cited from earlier work
[2] = test system: pCREB and the AMPA receptor pGluR1; set-up: method as in Bruns et al. [2018]; conditions: hD1 mouse; similar to SKF82958; ref Bruns et al. [2018]; cited from earlier work
rhesus monkeys [3] = test: Spontaneous eye blink rate, cumulative dosing; format: in vivo, rhesus monkey
Source text: Eleven 5–6-year-old, male rhesus monkeys (Chengdu Ping, An Animal Breeding and Research Base, Sichuan Province, China) with an average weight of 4.83 kg were included in the study. The animals were randomly divided into three groups, DPTQ higher cumulative dose group (n = 4); DPTQ lower cumulative dose group (n = 3); and vehicle (20% Captisol (CyDex Pharmaceuticals, Inc., KS) in NaPO4 buffer) group (n = 4). The D1 agonist SKF82958 was included as a positive control; the results for this compound (not shown here) were recently published together with data for a different D1PAM (DETQ, see Bruns et al. [2018]). The D1 selective antagonist SCH39166 hydrobromide (Cat No.: 2299, Batch No.: 3A/129719) was purchased from Tocris, MN, and was prepared in Millipore pure water with the injection volume 0.2 ml/kg. The D1 antagonist was dosed 15 min before vehicle or DPTQ (n = 4 animals per group).
Spontaneous eye blinking rate was measured during observational experiments conducted in a specially constructed monkey chair (Mason et al. [2019]). A U-shaped neck plate that helped to fixate the orientation of the head was used to facilitate observation of eye blink rate response. A compact video camera (Panasonic/wv-cp480/CH) on a tripod was positioned in front of the seated monkey. Two camera images were combined by video collector (Color QUAD system) and transferred to the EthoVision software (Noldus, Leesburg, VA) on the computer for on-line viewing and recording.
Two weeks before testing, monkeys were trained daily to sit in the monkey chair for two 2-h periods with food reward. During post-training test sessions conducted between 9:00 am and 4:30 pm every day, each monkey was studied for nine consecutive 15-min components. Each 15-min block consisted of a 10-min habituation period followed by a 5-min period during which eye blinking was counted. […] Observers blind to the treatment conditions later scored each 5-min videotaped session. An eye blink was defined as a visible, rapid opening and closing of the eyelid. Two observers independently confirmed the measurement with reliability > 90%.
The effects of different D1 ligands on spontaneous eye blink rate were studied by a cumulative dosing procedure (Jutikiewicz and Bergman 2004). Active compound or vehicle (Captisol 20% w/v NaPO4 buffer) was administered after obtaining two baseline eye blink recordings. The ligand was given in random order to different monkeys of each group as described above. To study dose response and time course, incremental doses of DPTQ were administrated at the end of 15-min components of each test session.
DPTQ (free base, see Hao et al. [2019]) was supplied by Eli Lilly Company. Captisol (Lot No.: NC-04A-05034) was prepared as follows: Captisol 20% w/v NaPO4 buffer 25 mM, pH 8. The injection volume for DPTQ was 0.5 ml/kg IM. DPTQ at 0.1 mg/kg, 0.5 mg/kg, and 1 mg/kg were dosed as clear solution, while the 5 mg/kg and 10 mg/kg doses were formulated as fine suspensions. The above vehicle solution was stored at 4℃ in a refrigerator and restored to room temperature before use. When preparing DPTQ fresh daily, a portion of the vehicle (20% Captisol) was added to the compound and stirred to wet, followed by addition of the remainder of the vehicle and mixing until the solution became homogeneous. The suspension was then sonicated on an ice bath for 40 min to reduce particle size. Animals were dosed while in the chair.
Results for each monkey were expressed as the rate of eye blinking (blinks per minute) averaged over each 5-min testing epoch. The effects of vehicle and D1 PAM on eye blinking were averaged for each group of monkeys and expressed as mean ± SE. The effects of DPTQ and vehicle were analyzed with two-way ANOVA (D1 PAM and time) followed by Bonferroni post hoc test (GraphPad Prism, San Diego CA).

adult human volunteers = test system: adult human volunteers; set-up: method as in Wilbraham et al. [2021]; conditions: clinical studies; ref Wilbraham et al. [2021]; cited from earlier work

Sequence of D2 receptor (P14416 whole entry): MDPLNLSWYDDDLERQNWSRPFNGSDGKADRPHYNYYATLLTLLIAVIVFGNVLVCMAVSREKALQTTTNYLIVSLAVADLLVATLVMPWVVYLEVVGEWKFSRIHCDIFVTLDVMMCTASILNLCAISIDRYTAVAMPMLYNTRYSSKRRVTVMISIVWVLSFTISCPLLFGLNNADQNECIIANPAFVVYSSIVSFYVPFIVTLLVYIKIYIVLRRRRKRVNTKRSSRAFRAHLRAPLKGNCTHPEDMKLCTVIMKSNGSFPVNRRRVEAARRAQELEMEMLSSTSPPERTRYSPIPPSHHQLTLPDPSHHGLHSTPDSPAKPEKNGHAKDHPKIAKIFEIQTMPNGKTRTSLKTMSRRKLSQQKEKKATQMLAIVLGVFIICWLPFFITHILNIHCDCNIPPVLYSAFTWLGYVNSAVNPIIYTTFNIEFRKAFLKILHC

Compound | Activity at the D2 receptor (D2 receptor) | Spontaneous eye blink rate (rhesus monkeys [1]) | Brain levels of pCREB and pGluR1 [2] | Duration of eye blink reduction/sedation (rhesus monkeys [3]; 0.03 mg/kg IM alone) | Spontaneous eye blink rate, antagonist alone (rhesus monkeys [3]; 0.03 mg/kg IM alone) | Visual observation of sedation (rhesus monkeys [3]; 0.03 mg/kg IM alone) | Effect on DPTQ-induced increase in spontaneous eye blink rate (rhesus monkeys [3]; SCH39166 pretreatment, high cumulative doses of DPTQ, n = 4/group) | Oral movement with tongue protrusion (adult human volunteers)
C[C@H]1c2cccc(C(C)(C)O)c2C[C@H](CO)N1C(=O)Cc1c(Cl)cccc1Cl [DETQ] | no activity | enhanced spontaneous eye blink rate | enhances | – | – | – | – | –
CN1CCc2cc(Cl)c(O)cc2[C@H]2c3ccccc3CC[C@@H]21 [SCH39166, reference compound] | – | – | – | about 15 min | brief reduction in eye blink rate | slightly sedated | blocks | –
C[C@H]1c2cccc(CCC(C)(C)O)c2C[C@H](CO)N1C(=O)Cc1c(Cl)cccc1Cl [mevidalen, 2-(2,6-dichlorophenyl)-1-((1S,3R)-5-(3-hydroxy-3-methylbutyl)-3-(hydroxymethyl)-1-methyl-3,4-dihydroisoquinolin-2(1H)-yl)ethan-1-one] | no activity | – | – | – | – | – | – | not reported
